Results as given in US12195476B2, “Synthesis method of furoimidazopyridine compound, crystal form of furoimidazopyridine compound, and crystal form of salt thereof” (HANGZHOU HIGHLIGHTLL PHARMACEUTICAL CO., LTD, priority 2019, dated 2025).
Converted amounts (≈) assume the structure as drawn. Structures can show the parent of a compound that is named as a salt. Where two headings read alike, the source gives them in different places.

Columns and labels:
Type in all cases: physicochemical
[1] = Solubility test in water, SGF, FaSSIF and FeSSIF (37° C., HPLC); settings: for solubility at 30 min / solubility at 2 h / solubility at 4 h / solubility at 24 h: 37 °C, thermodynamic from solid, read-out: Solubility (based on a compound of formula I); for solubility at 30 min / solubility at 2 h / solubility at 4 h / solubility at 24 h / Solubility (based on a compound of formula I): 37° C.; for difference in the equilibrium solubilities (24 h) between crystal form 1 and crystal form D: FaSSIF and FeSSIF, result in words
Experimental: 4 samples, each of crystal form 1 of a compound of formula I and crystal form D of a phosphate of a compound of formula I each with appropriate amount were weighed and placed into a 4 mL transparent glass bottle respectively, 1 mL of water, simulated gastric fluid (SGF), fasted-state simulated intestinal fluid (FaSSIF) and fed-state simulated intestinal fluid (FeSSIF) were added respectively, sample suspension was obtained and quickly placed on a shaker (37° C., 200 rpm) and the shaker was shaked, the samples were observed 5 minutes later, a quantity of samples or medium were supplemented to obtain mild suspension, samples were taken at 30 minutes, 2 hours, 4 hours and 24 hours, respectively, centrifuged for 10 minutes at 12000 rpm, the supernatants were collected, diluted appropriately and then were tested by a higher performance liquid chromatography.
The sample concentrations were calculated with an external standard method.

[2] = Dynamic vapor sorption (DVS) hygroscopicity test; settings: for Hygroscopicity: weight gain by moisture absorption: 0% RH-95% RH, 25° C.; for change of crystal form before and after the DVS test: result in words
Experimental: (§1) DSC, TGA and DVS tests were conducted for crystal form A of a hydrochloride of a compound of formula I, crystal form B of a sulfate of a compound of formula I, crystal form C of a hydrobromide of a compound of formula I and crystal form D of a phosphate of a compound of formula I.

[3] = Stability test at high temperature and in accelerated conditions (HPLC purity, XRPD, DSC); settings: for Stability study: Crystal form: 2 weeks (XRPD); for 2-week physical and chemical stabilities: high temperature (60° C.) and accelerated conditions (40° C./75% RH), result in words
Experimental: About 1 mg of crystal form 1 of a compound of formula I and 1 mg of crystal form D of a phosphate of a compound of formula I samples were weighed and each was placed into a 40 mL transparent glass bottle, the samples were placed in a stability chamber in accelerated conditions (40° C./75% RH, open) and at a high temperature (60° C., sealed) respectively. For the open samples, the bottle cap was removed and the bottle neck was covered with aluminium-foil paper stabbed with pinholes to avoid cross contamination; for the closed samples, each bottle was covered with a cap and sealed tightly. Samples were taken at week 1 and week 2, respectively, after diluted with diluent (acetonitrile/water (1/1) (v/v), the liquid phases were injected according to the chromatographic conditions in Table 12 to determine sample purities.
The sample purities were calculated with an area normalization method.

[4] = DSC test of salt crystal forms (thermostability); settings: single and higher melting points, result in words
Experimental: as §1

## C[C@@H](O)c1nc2cnc3ccoc3c2n1[C@H]1CC[C@H](CC#N)OC1 [2-[(2R,5S)-5-[2-[(R)-1-hydroxyethyl]furo[3,2-b]imidazo[4,5-d]pyridin-1-yl]tetrahydropyran-2-yl]acetonitrile]
[1]; fasted-state simulated intestinal fluid (FaSSIF), fassif, Fasted-state simulated intestinal fluid (FaSSIF), 30 min
  solubility at 30 min: 170 µg/mL (≈ 521 µM)
[1]; fasted-state simulated intestinal fluid (FaSSIF), fassif, Fasted-state simulated intestinal fluid (FaSSIF), 2 h
  solubility at 2 h: 170 µg/mL (≈ 521 µM)
[1]; fasted-state simulated intestinal fluid (FaSSIF), fassif, Fasted-state simulated intestinal fluid (FaSSIF), 4 h
  solubility at 4 h: 170 µg/mL (≈ 521 µM)
[1]; fasted-state simulated intestinal fluid (FaSSIF), fassif, Fasted-state simulated intestinal fluid (FaSSIF), 24 h
  solubility at 24 h: 160 µg/mL (≈ 490 µM)
[1]; fed-state simulated intestinal fluid (FeSSIF), fessif, Fed-state simulated intestinal fluid (FeSSIF), 30 min
  solubility at 30 min: 260 µg/mL (≈ 797 µM)
[1]; fed-state simulated intestinal fluid (FeSSIF), fessif, Fed-state simulated intestinal fluid (FeSSIF), 2 h
  solubility at 2 h: 230 µg/mL (≈ 705 µM)
[1]; fed-state simulated intestinal fluid (FeSSIF), fessif, Fed-state simulated intestinal fluid (FeSSIF), 4 h
  solubility at 4 h: 220 µg/mL (≈ 674 µM)
[1]; fed-state simulated intestinal fluid (FeSSIF), fessif, Fed-state simulated intestinal fluid (FeSSIF), 24 h
  solubility at 24 h: 240 µg/mL (≈ 735 µM)
[1]; simulated gastric fluid (SGF), simulated gastric fluid, Simulated gastric fluid (SGF), 30 min
  solubility at 30 min: 30200 µg/mL (≈ 92600 µM)
[1]; simulated gastric fluid (SGF), simulated gastric fluid, Simulated gastric fluid (SGF), 2 h
  solubility at 2 h: 29700 µg/mL (≈ 91100 µM)
[1]; simulated gastric fluid (SGF), simulated gastric fluid, Simulated gastric fluid (SGF), 4 h
  solubility at 4 h: 29500 µg/mL (≈ 90300 µM)
[1]; simulated gastric fluid (SGF), simulated gastric fluid, Simulated gastric fluid (SGF), 24 h (equilibrium)
  solubility at 24 h: 30200 µg/mL (≈ 92500 µM)

## C[C@@H](O)c1nc2cnc3ccoc3c2n1[C@H]1CC[C@H](CC#N)OC1 [Crystal form 1 of a compound of formula I] [2-[(2R,5S)-5-[2-[(R)-1-hydroxyethyl]furo[3,2-b]imidazo[4,5-d]pyridin-1-yl]tetrahydropyran-2-yl]acetonitrile]
[2]; DVS
  Hygroscopicity: weight gain by moisture absorption: 5.2%
[2]; DVS, listed as crystal form 1 of a compound of formula I
  Hygroscopicity: weight gain by moisture absorption: 5.2%
[2]; DVS, desorption 95% RH to 0% RH
  water remaining after desorption: 2%
[1]
  difference in the equilibrium solubilities (24 h) between crystal form 1 and crystal form D: no obvious difference
[1]; Fasted-state simulated intestinal fluid (FaSSIF), 30 min
  Solubility (based on a compound of formula I): 0.17 mg/mL
[1]; Fasted-state simulated intestinal fluid (FaSSIF), 2 h, listed as Crytstal form 1 of a compound of formula I
  Solubility (based on a compound of formula I): 0.19 mg/mL
[1]; Fasted-state simulated intestinal fluid (FaSSIF), 4 h, listed as Crytstal form 1 of a compound of formula I
  Solubility (based on a compound of formula I): 0.16 mg/mL
[1]; Fasted-state simulated intestinal fluid (FaSSIF), 24 h, listed as Crytstal form 1 of a compound of formula I
  Solubility (based on a compound of formula I): 0.17 mg/mL
[1]; Simulated gastric fluid (SGF), 30 min, listed as Crytstal form 1 of a compound of formula I
  Solubility (based on a compound of formula I): 16.52 mg/mL
[1]; Simulated gastric fluid (SGF), 2 h, listed as Crytstal form 1 of a compound of formula I
  Solubility (based on a compound of formula I): 16.71 mg/mL
[1]; Simulated gastric fluid (SGF), 4 h, listed as Crytstal form 1 of a compound of formula I
  Solubility (based on a compound of formula I): 16.88 mg/mL
[1]; Simulated gastric fluid (SGF), 24 h (equilibrium), listed as Crytstal form 1 of a compound of formula I
  Solubility (based on a compound of formula I): 16.42 mg/mL
[1]; Water, 30 min, listed as Crytstal form 1 of a compound of formula I
  Solubility (based on a compound of formula I): 0.16 mg/mL
[1]; Water, 2 h, listed as Crytstal form 1 of a compound of formula I
  Solubility (based on a compound of formula I): 0.18 mg/mL
[1]; Water, 4 h, listed as Crytstal form 1 of a compound of formula I
  Solubility (based on a compound of formula I): 0.16 mg/mL
[1]; Water, 24 h (equilibrium), listed as Crytstal form 1 of a compound of formula I
  Solubility (based on a compound of formula I): 0.18 mg/mL
[3]; 0 day
  Stability study (purity): 98.74 Area %
[3]; 40° C./75% RH, open, 1 week
  Stability study (purity): 98.71 Area %
[3]; 40° C./75% RH, open, 2 weeks
  Stability study (purity): 98.77 Area %
[3]; 40° C./75% RH, open
  Stability study: Crystal form: Unchanged
[3]; 60° C., sealed, 1 week
  Stability study (purity): 98.73 Area %
[3]; 60° C., sealed, 2 weeks
  Stability study (purity): 98.74 Area %
[3]; 60° C., sealed
  Stability study: Crystal form: Unchanged
[3]
  2-week physical and chemical stabilities: good

## C[C@@H](O)c1nc2cnc3ccoc3c2n1[C@H]1CC[C@H](CC#N)OC1 [Crystal form B of a sulfate of a compound of formula I] [2-[(2R,5S)-5-[2-[(R)-1-hydroxyethyl]furo[3,2-b]imidazo[4,5-d]pyridin-1-yl]tetrahydropyran-2-yl]acetonitrile]
[2]; DVS
  Hygroscopicity: weight gain by moisture absorption: 9.4%
[2]; DVS, listed as crystal form B of a sulfate of a compound of formula I
  Hygroscopicity: weight gain by moisture absorption: 9.4%
[2]
  change of crystal form before and after the DVS test: no significant changes
[4]
  thermostability of the crystal form: relatively good

## C[C@@H](O)c1nc2cnc3ccoc3c2n1[C@H]1CC[C@H](CC#N)OC1 [Crystal form D of a phosphate of a compound of formula I] [2-[(2R,5S)-5-[2-[(R)-1-hydroxyethyl]furo[3,2-b]imidazo[4,5-d]pyridin-1-yl]tetrahydropyran-2-yl]acetonitrile]
[2]; DVS
  Hygroscopicity: weight gain by moisture absorption: 4.7%
[2]; DVS, listed as crystal form D of a phosphate of a compound of formula I
  Hygroscopicity: weight gain by moisture absorption: 4.7%
[2]
  change of crystal form before and after the DVS test: no significant changes
[1]
  difference in the equilibrium solubilities (24 h) between crystal form 1 and crystal form D: no obvious difference
[1]; Fed-state simulated intestinal fluid (FeSSIF), 30 min
  Solubility (based on a compound of formula I): 0.36 mg/mL
[1]; Fed-state simulated intestinal fluid (FeSSIF), 2 h
  Solubility (based on a compound of formula I): 0.22 mg/mL
[1]; Fed-state simulated intestinal fluid (FeSSIF), 4 h
  Solubility (based on a compound of formula I): 0.19 mg/mL
[1]; Fed-state simulated intestinal fluid (FeSSIF), 24 h
  Solubility (based on a compound of formula I): 0.21 mg/mL
[1]; SGF
  equilibrium solubility (24 h) relative to crystal form 1 of a compound of formula I: 2 times
[1]; Water, 30 min
  Solubility (based on a compound of formula I): 1.85 mg/mL
[1]; Water, 2 h
  Solubility (based on a compound of formula I): 1.78 mg/mL
[1]; Water, 4 h
  Solubility (based on a compound of formula I): 1.73 mg/mL
[1]; Water, 24 h (equilibrium)
  Solubility (based on a compound of formula I): 1.8 mg/mL
[1]; water
  equilibrium solubility (24 h) relative to crystal form 1 of a compound of formula I: 10 times
[3]; 0 day
  Stability study (purity): 99.13 Area %
[3]; 40° C./75% RH, open, 1 week
  Stability study (purity): 99.11 Area %
[3]; 40° C./75% RH, open, 2 weeks
  Stability study (purity): 99.10 Area %
[3]; 40° C./75% RH, open
  Stability study: Crystal form: Unchanged
[3]; 60° C., sealed, 1 week
  Stability study (purity): 99.11 Area %
[3]; 60° C., sealed, 2 weeks
  Stability study (purity): 99.11 Area %
[3]; 60° C., sealed
  Stability study: Crystal form: Unchanged
[3]
  2-week physical and chemical stabilities: good
[4]
  thermostability of the crystal form: relatively good
